# Patent US20100189707A1, “Stable Enzymatic Peracid Generating Systems” (priority 2007, published 2010)
# B1: S54V variant: M. smegmatis acyl transferase variant comprising the S54V substitution (protein)
# chain: MAKRILCFGDSLTWGWVPVEDGAPTERFAPDVRWTGVLAQQLGADFEVIEEGLVARTTNIDDPTDPRLNGASYLPSCLATHLPLDLVIIMLGTNDTKAYFRRTPLDIALGMSVLVTQVLTSAGGVGTTYPAPKVLVVSPPPLAPMPHPWFQLIFEGGEQKTTELARVYSALASFMKVPFFDAGSVISTDGVDGIHFTEANNRDLGVALAEQVRSLL
# Key:
# [1] = tested on: B. subtilis spores; assay: MsAcT system generated PAA killing of B. subtilis spores in buffer or detergent; type: cell-based; conditions: single reaction components in 400 mM KPO4 pH 7.1: 2 ppm S54V variant, 39 mM percarbonate, 100 mM PGDA
# Procedure: In this experiment, sodium percarbonate was used as the source of H2O2. The final solution contained: 100 mM 1,2-propylene glycol diacetate, 2 ppm S54V variant, 39 mM sodium percarbonate (Technical grade 85%; yielding 100 mM effective H2O2) in 320 mM KPO4 pH 7.1 in a total volume of 800 μl. This mix (yield 40 mM PAA) was serially diluted to give additional mixes that yielded 4.9, 9.9 and 20.5 mM PAA. A mix with only 400 mM KPO4 pH 7.1 was used to determine total spore counts in the absence of PAA. The mixes were allowed to incubate at room temperature for 3 min. A volume of 180 μl of each of the mixes was then dispensed into duplicate wells of a round-bottomed 96-well plate (Costar) that contained 20 μl of the spore suspension used in Example 1, to yield a total volume of 200 μl in each well. The liquid was gently pipetted 4-5 times to ensure mixing of the components. The mixes were incubated with the spores for a further 15 or 30 minutes at room temperature. At the 15 and 30 minute time points, 20 μl were removed from each of the wells, added to wells in a fresh 96-well plate and serially diluted in LB to 10^−7 in a total volume of 100 μl. A volume of 5 μl from each dilution of each spore mixture was spotted onto an LA plate, allowed to dry and then incubated overnight at 37° C. Also at the 15 and 30 min time points, an appropriate volume was removed from each well and diluted sufficiently in dH2O to yield a measurable amount of PAA using the ABTS assay on scale with a standard, as described in Example 1. The results of the spore killing are presented as an average of the duplicates.
# The experiment was repeated exactly as described except that a 1:500 dilution of Purex in 320 mM KPO4 pH 7.1, was used in place of the buffer. The results are presented in Table 3 (average of duplicates). Controls included various reaction components in 400 mM KPO4 pH 7.1 buffer: 2 ppm S54V variant, 2 ppm S54V variant with 39 mM percarbonate, 100 mM 1,2-propylene glycol diacetate, 100 mM 1,2-propylene glycol diacetate with 39 mM sodium percarbonate, 39 mM sodium percarbonate. […]
# [2] = tested on: S54V-MsAcT; assay: Enzymatic generation of PAA by S54V variant (ABTS assay); type: biochemical, M. smegmatis; conditions: for relative conversion rate to PAA for the three ester substrates: with S54V-MsAcT, same method as for PGDA
# Procedure: In these experiments, methods known in the art were used to determine the concentration of PAA (See e.g., Pinkernell et al., Analyst, 122:567-571 [1997]). In this ABTS assay, 100 μl of the solution to be analyzed was added to 1 ml of 125 mM potassium citrate buffer, pH 5.0, containing 1.0 mM 3-ethylbenzthiazoline-6-sulfonic acid (ABTS) and 50 uM KI, and allowed to incubate at RT for 3 minutes. The absorbance was measured at 420 nm in a HP 8452A Diode Array Spectrophotomer and compared to a standard curve prepared using authentic standard. The enzymatic reactions to form PAA were initiated with addition of enzyme and conducted at RT. Aliquots were withdrawn from the reactions at the indicated times and analyzed for PAA concentration. The sodium percarbonate used in these experiments was obtained from Kemira and the hydrogen peroxide was obtained from EM Science.
# A solution of 39 mM sodium percarbonate (sodium carbonate peroxyhydrate, Technical grade 85%, yielding 100 mM effective H2O2; Kemira) was prepared in 320 mM KPO4 pH 7.1. […] To compare the enzymatic production of PAA from prepared H2O2 (32 wt %, Aldrich) or H2O2 formed from percarbonate under identical pH conditions, two reactions were prepared. One reaction contained 100 mM H2O2 in 320 mM KPO4, pH 7.6, 100 mM 1,2-propylene glycol diacetate (Aldrich), and 2 ppm variant S54V. The absolute concentration of H2O2 was assumed from the value stated on the label and not confirmed by analysis. The second reaction contained 39 mM sodium percarbonate in 320 mM KPO4, pH 7.1, 100 mM 1,2-propylene glycol diacetate, and 2 ppm S54V. The reactions were initiated by the addition of the enzyme. Samples were withdrawn at the times indicated and the concentration of PAA determined as described in Example 1.
# In order to study the use of different propyl alcohol acetate ester substrates, the generation of PAA was carried out using the same general method described above for PGDA, but using either propyl acetate or triacetin as the ester substrate. […]
# In this Example, experiments to assess the amount of peracetic acid produced from glucose and propyleneglycol diacetate are described. […] Further samples were withdrawn at the times indicated in FIG. 2, and the concentration of PAA determined as described above. No PAA was detected before the addition of enzyme and approximately 9.5 mM PAA was produced from the 20 mM 1,2-propylene glycol diacetate and the H2O2 produced from the glucose/glucose oxidase reaction.
# In these experiments, three reactions were prepared, consisting of 320 mM KPO4 pH 7.1, 100 mM 1,2-propylene glycol diacetate (Aldrich), and 100 mM sodium percarbonate. […] Samples were withdrawn at the times indicated in the Figure, and the concentration of PAA determined as described above.
# [3] = tested on: B. subtilis spores; assay: Killing of B. subtilis spores by PAA; type: cell-based; conditions: 15 min RT
# Procedure: In this Example, experiments conducted to determine the killing curve of peracetic acid (PAA) and PAA in conjunction with detergent (commercially available PUREX® [Dial] was used in this Example) for B. subtilis spores. In these experiments, the B. subtilis spores were prepared as known in the art (See e.g., Siccardi et al., J. Bacteriol., 121:13-19 [1975]). Assays were carried out in duplicate in 96-well, round bottomed microtiter plates (Costar) with peracetic acid (32 wt % in acetic acid; Aldrich). The PAA was serially diluted in either 50 mM KPO4 buffer, pH 7.1 (“Buffer”), or in a 1:500 dilution of Purex (original formula; Dial) in the same buffer (“Buffer+Det”) in a total volume of 50 μl. The amount of PAA added to the assay was 0, 0.4, 4 or 40 mM. A volume of 5 μl of the spore suspension, containing 10^9-10^10 spores, was then added to each well and the assay incubated for 15 min at RT. Ice cold LB (150 μl) (See e.g., Sambrook et al., “Molecular Cloning: A Laboratory Manual”, Second Edition (Cold Spring Harbor), [1989]) was then added to each well, mixed, and 100 μl transferred to a fresh 96-well plate. Serial dilutions of each solution were made (in a total volume of 100 μl/well). A volume of 5 μl of each dilution was spotted onto LA plates (Sambrook et al., supra), and incubated at 37° C. for 17-24 h. Colonies were counted and the % spore killing was determined relative to the respective controls (buffer alone or buffer+detergent, without peracid). The results are presented in Table 1, as an average of duplicates from one experiment. However, the experiment was done twice in duplicate with similar results.
molecule,measurement,setting,value
"CC(=O)OCC(C)OC(C)=O (stereo not shown) [PGDA, 1,2-propylene glycol diacetate]",spores/ml after a 30 min incubation,[1],5×10^9 spores/ml
same,relative conversion rate to PAA for the three ester substrates,[2],PGDA >triacetin >propyl acetate
"CC(=O)OO [PAA, peracetic acid]",% Spore Killing,"[3]; Buffer + Detergent, 0.4 mM PAA",0.05%
same,Spores/ml,"[3]; Buffer + Detergent, 0.4 mM PAA",1.7 × 10^9 Spores/ml
same,% Spore Killing,"[3]; Buffer + Detergent, 4 mM PAA",86.4%
same,Spores/ml,"[3]; Buffer + Detergent, 4 mM PAA",2.4 × 10^8 Spores/ml
same,% Spore Killing,"[3]; Buffer + Detergent, 40 mM PAA",100%
same,Spores/ml,"[3]; Buffer + Detergent, 40 mM PAA",0 Spores/ml
same,% Spore Killing,"[3]; Buffer, 0.4 mM PAA",86.4%
same,Spores/ml,"[3]; Buffer, 0.4 mM PAA",2.4 × 10^8 Spores/ml
same,% Spore Killing,"[3]; Buffer, 4 mM PAA",90%
same,Spores/ml,"[3]; Buffer, 4 mM PAA",1.6 × 10^8 Spores/ml
same,% Spore Killing,"[3]; Buffer, 40 mM PAA",100%
same,Spores/ml,"[3]; Buffer, 40 mM PAA",0 Spores/ml
CCCOC(C)=O [propyl acetate],relative conversion rate to PAA for the three ester substrates,[2],PGDA >triacetin >propyl acetate
O=C([O-])[O-].O=C([O-])[O-].OO.OO.OO.[Na+].[Na+].[Na+].[Na+] [sodium percarbonate],spores/ml after a 30 min incubation,[1],1×10^9 spores/ml
B1,spores/ml after a 30 min incubation,[1],5×10^9 spores/ml
same,PAA produced,"[2]; 20 mM 1,2-propylene glycol diacetate, H2O2 from glucose/glucose oxidase, 2 ppm S54V variant, RT",approximately 9.5 mM
same,temperature up to which the enzyme system is functional,"[2]; 2 ppm S54V variant, 100 mM PGDA, 100 mM sodium percarbonate, 21, 40, 60° C.",≥ 60 °C
